In ChEMBL document CHEMBL5338711, “Designing and development of phthalimides as potent anti-tubulin hybrid molecules against malaria” (Eur J Med Chem, 2022):
Active and inactive are the calls of the source. The calls are words filed in the database; no cut-off is given here.

Assays:
Plasmodium falciparum [1] = assay: Antimalarial activity against […] infected in human RBC assessed as inhibition of plasmodial growth at 1 uM by SYBR green dye based spectrofluorometric analysis relative to control; format: functional; details: 3D7, Erythrocyte
Plasmodium falciparum [2] = assay: Antimalarial activity against […] infected in human RBC assessed as inhibition of plasmodial growth at 10 uM by SYBR green dye based spectrofluorometric analysis relative to control; format: functional; details: 3D7, Erythrocyte
Plasmodium falciparum [3] = assay: Antimalarial activity against chloroquine-resistant Plasmodium falciparum RKL-9 infected in human RBC assessed as reduction of plasmodial growth by SYBR green dye based spectrofluorometric analysis; format: functional, organism-based
Plasmodium berghei [4] = assay: Antimalarial activity against Plasmodium berghei ANKA in BALB/c mouse injected with parasite infected erythrocytes assessed as decrease in parasite load at 30 mg/kg, ip administered daily for 7 days relative to control; format: functional; design: scale not given: the % may be the effect or the level left; details: time 7 day
Plasmodium falciparum [5] = assay: Induction of mitochondrial membrane depolarization in trophozoite stage Plasmodium falciparum 3D7 infected in human RBC assessed as decrease in red to green fluorescence ratio at IC50 concentration incubated for 3 hrs by JC-1 dye based fluorescence microscopic analysis; format: functional, organism-based
Plasmodium berghei [6] = assay: Antimalarial activity against Plasmodium berghei ANKA in BALB/c mouse injected with parasite infected erythrocytes assessed as reduction in parasitemia at 30 mg/kg, ip administered daily for 7 days and measured after 15 days; format: functional, organism-based; details: time 15.0 day
Plasmodium falciparum [7] = assay: Synergistic antimalarial activity against synchronized ring stage Plasmodium falciparum 3D7 infected in human RBC assessed as mean fractional inhibitory concentration at 1:1 ratio of ART to compound incubated for 72 hrs by giemsa staining based flow cytometric analysis; format: functional
Plasmodium berghei [8] = assay: Antimalarial activity against Plasmodium berghei ANKA in BALB/c mouse injected with parasite infected erythrocytes assessed as […] mean survival time at 30 mg/kg, ip administered daily for 7 days and measured after 15 days; format: functional; details: time 15 day
Erythrocyte = assay: Hemolytic activity in human RBC assessed as hemolysis upto 5 uM incubated for 2 hrs; format: toxicity, cell-based
Plasmodium falciparum [9] = assay: Induction of mitochondrial membrane depolarization in trophozoite stage Plasmodium falciparum 3D7 infected in human RBC assessed as increase in green fluorescence at IC50 concentration incubated for 3 hrs by JC-1 dye based fluorescence microscopic analysis; format: functional, organism-based
Plasmodium falciparum [10] = assay: Antimalarial activity against chloroquine-resistant synchronized late stage trophozoite Plasmodium falciparum RKL-9 infected in human RBC assessed as inhibition of plasmodial growth by giemsa staining based analysis; format: functional, organism-based; details: RKL-9, Erythrocyte
[11] = Therapeutic index, ratio of CC50 for human HepG2 cells to IC50 for chloroquine-sensitive synchronized late stage trophozoite Plasmodium falciparum 3D7 infected in human RBC; format: toxicity; details: read-out: TI
[12] = Cytotoxicity against […] cell upto 500 uM; format: toxicity, cell-based; details: human
Plasmodium falciparum [13] = assay: Antimalarial activity against chloroquine-sensitive synchronized late stage trophozoite Plasmodium falciparum 3D7 infected in human RBC assessed as inhibition of plasmodial growth by giemsa staining based analysis; format: functional, organism-based; details: 3D7, Erythrocyte
[14] = Cytotoxicity against human HepG2 cells; format: toxicity, cell-based
Plasmodium falciparum [15] = assay: Induction of mitochondrial membrane depolarization in trophozoite stage Plasmodium falciparum 3D7 infected in human RBC assessed as red to green fluorescence ratio at IC50 concentration incubated for 3 hrs by JC-1 dye based spectrofluorometric analysis (reference value: 6.96+/-0.94); format: functional
Plasmodium falciparum [16] = assay: Antiplasmodial activity against synchronized ring stage Plasmodium falciparum 3D7 infected in human RBC assessed as reduction in transformation into pyknotic trophozoites by measuring delay in ring maturation at IC50 concentration measured after 60 hrs by giemsa staining based light microscopic analysis; format: functional, organism-based
Plasmodium falciparum [17] = assay: Binding affinity to recombinant N-terminal 6His tagged Plasmodium falciparum alpha-1 tubulin expressed in Escherichia coli BL21 assessed as dissociation constant at 0.78 to 75 uM by SPR analysis; details: dose 0.78-75 µM
Plasmodium falciparum [18] = assay: Binding affinity to recombinant N-terminal 6His tagged Plasmodium falciparum beta-tubulin expressed in Escherichia coli BL21 at 0.78 to 75 uM by SPR analysis; details: dose 0.78-75 µM
[19] = Therapeutic index, ratio of cytotoxicity against […] cells to IC50 for chloroquine-sensitive synchronized late stage trophozoite Plasmodium falciparum 3D7 infected in human RBC; format: toxicity, cell-based; details: read-out: TI
Plasmodium falciparum [20] = assay: Antiplasmodial activity against synchronized ring stage Plasmodium falciparum 3D7 infected in human RBC assessed as failure of egress by measuring accumulation at late schizont stage at IC50 concentration measured after 60 hrs by giemsa staining based light microscopic analysis; format: functional, organism-based
Plasmodium falciparum [21] = assay: Binding affinity to recombinant N-terminal 6His tagged Plasmodium falciparum alpha-1 tubulin expressed in Escherichia coli BL21 assessed as thermo-stabilization incubated at 4 to 80 degreeC for 3 mins followed by 5 mins incubation at room temperature by thermal shift assay; details: time 8.0 min
Plasmodium falciparum [22] = assay: Antiplasmodial activity against Plasmodium falciparum 3D7; format: functional, organism-based
[23] = Cytotoxicity against human U-937 cells; format: toxicity, cell-based
Plasmodium falciparum [24] = assay: Antiplasmodial activity against […] incubated for 90 hrs by SYBR green I dye based analysis; format: functional, organism-based; details: 3D7, 90 h
[25] = Cytotoxicity against human U-937 cells assessed as reduction in cell viability incubated for 24 hrs by MTT assay; format: toxicity, cell-based
Plasmodium falciparum [26] = assay: Synergistic antimalarial activity against synchronized ring stage Plasmodium falciparum 3D7 infected in human RBC assessed as mean fractional inhibitory concentration at 2:3 ratio of ART to compound incubated for 72 hrs by giemsa staining based flow cytometric analysis; format: functional
[27] = Binding affinity to recombinant N-terminal 6His tagged Plasmodium falciparum alpha-1 tubulin expressed in Escherichia coli BL21 assessed as dissociation constant by SPR analysis
Plasmodium falciparum [28] = assay: Antiplasmodial activity against synchronized ring stage Plasmodium falciparum 3D7 infected in human RBC assessed as defect in invasion stage by measuring merozoites sticking on the red blood cell surface at IC50 concentration measured after 60 hrs by giemsa staining based light microscopic analysis; format: functional, organism-based
Plasmodium falciparum [29] = assay: Synergistic antimalarial activity against synchronized ring stage Plasmodium falciparum 3D7 infected in human RBC assessed as mean fractional inhibitory concentration at 1:4 ratio of ART to compound incubated for 72 hrs by giemsa staining based flow cytometric analysis; format: functional

Structure (SMILES): Cc1ccc(-n2cc(Cn3c([C@@H](CC(C)C)N4C(=O)c5ccc(C)cc5C4=O)nc4ccccc43)nn2)cc1
- inhibition at 1 µM (Plasmodium falciparum [1]): -8.63%
- inhibition at 10 µM (Plasmodium falciparum [2]): 68.9%

Structure (SMILES): CCC(C)[C@H](c1nc2ccccc2n1Cc1cn(-c2c(F)c(F)c(F)c(F)c2F)nn1)N1C(=O)c2ccc(C)cc2C1=O (stereo partly drawn)
- inhibition at 1 µM (Plasmodium falciparum [1]): -4%
- inhibition at 10 µM (Plasmodium falciparum [2]): 95%

Structure (SMILES): COc1ccc(-n2cc(Cn3c([C@@H](CC(C)C)N4C(=O)c5ccc(C)cc5C4=O)nc4ccccc43)nn2)cc1
- inhibition at 1 µM (Plasmodium falciparum [1]): -43%
- inhibition at 10 µM (Plasmodium falciparum [2]): 65%

Structure (SMILES): Cc1ccc2c(c1)C(=O)N([C@H](CC(C)C)c1nc3ccccc3n1Cc1cn(-c3ccc(F)cc3)nn1)C2=O
- inhibition at 1 µM (Plasmodium falciparum [1]): 0.3%
- inhibition at 10 µM (Plasmodium falciparum [2]): 46%

Structure (SMILES): CC(C)[C@H](c1nc2ccccc2n1Cc1cn(-c2ccc(C(F)(F)F)cc2)nn1)N1C(=O)c2ccccc2C1=O
- Activity (Plasmodium falciparum [3]): Dose dependent effect
- Activity (Plasmodium berghei [4]): 3.9%
- Activity (Plasmodium falciparum [5]): Active
- Activity (Plasmodium berghei [6]): Active
- FIC (Plasmodium falciparum [7]): 0.93
- MST (Plasmodium berghei [8]): 10.47 days
- Activity (Erythrocyte): Non-Toxic
- inhibition at 1 µM (Plasmodium falciparum [1]): 22%
- Activity (Plasmodium falciparum [9]): Active
- IC50 (Plasmodium falciparum [10]): 3.92 µM
- selectivity ratio [11]: 43
- inhibition at 10 µM (Plasmodium falciparum [2]): 75%
- Activity [12]: Non-Toxic
- IC50 (Plasmodium falciparum [13]): 2.3 µM
- IC50 [14]: > 100 µM
- Activity (Plasmodium falciparum [15]): 5.06
- Activity (Plasmodium falciparum [16]): Active

Structure (SMILES): CCC(C)[C@H](c1nc2ccccc2n1Cc1cn(-c2ccc(F)cc2)nn1)N1C(=O)c2ccc(C)cc2C1=O (stereo partly drawn)
- Activity (Plasmodium falciparum [3]): Dose dependent effect
- Activity (Plasmodium falciparum [17]): inactive
- Activity (Plasmodium falciparum [5]): Active
- Activity (Plasmodium falciparum [18]): inactive
- Activity (Erythrocyte): Non-Toxic
- inhibition at 1 µM (Plasmodium falciparum [1]): 20%
- Activity (Plasmodium falciparum [9]): Active
- IC50 (Plasmodium falciparum [10]): 3.43 µM
- selectivity ratio [19]: > 800
- Activity (Plasmodium falciparum [20]): Active
- selectivity ratio [11]: 46
- inhibition at 10 µM (Plasmodium falciparum [2]): 64%
- Activity [12]: Non-Toxic
- IC50 (Plasmodium falciparum [13]): 2.2 µM
- Activity (Plasmodium falciparum [21]): Active
- IC50 [14]: > 100 µM
- Activity (Plasmodium falciparum [15]): 5.56

Structure (SMILES): CC(C)C[C@H](c1nc2ccccc2n1Cc1cn(-c2ccc(C(F)(F)F)cc2)nn1)N1C(=O)c2ccccc2C1=O
- inhibition at 1 µM (Plasmodium falciparum [1]): -53%
- inhibition at 10 µM (Plasmodium falciparum [2]): 88%

Structure (SMILES): CCC(C)[C@H](c1nc2ccccc2n1Cc1cn(-c2ccc(F)cc2)nn1)N1C(=O)c2ccccc2C1=O (stereo partly drawn)
- IC50 (Plasmodium falciparum [22]): 0.9 µM
- CC50 [23]: 28.8 µM

Structure (SMILES): CC(C)C(c1nc2ccccc2n1Cc1cn(-c2ccc(F)cc2)nn1)N1C(=O)c2ccccc2C1=O (stereo not drawn)
- IC50 (Plasmodium falciparum [24]): 3.5 µM
- CC50 at 24 h [25]: 0.78 µM

Structure (SMILES): CCC(C)[C@H](c1nc2ccccc2n1Cc1cn(-c2ccccc2F)nn1)N1C(=O)c2ccccc2C1=O (stereo partly drawn)
- inhibition at 1 µM (Plasmodium falciparum [1]): 8%
- inhibition at 10 µM (Plasmodium falciparum [2]): 87%

Structure (SMILES): Cc1ccc2c(c1)C(=O)N([C@H](CC(C)C)c1nc3ccccc3n1Cc1cn(-c3ccc(C(F)(F)F)cc3)nn1)C2=O
- inhibition at 1 µM (Plasmodium falciparum [1]): 37%
- inhibition at 10 µM (Plasmodium falciparum [2]): 75%

Structure (SMILES): CCC(C)[C@H](c1nc2ccccc2n1Cc1cn(-c2ccc(C(F)(F)F)cc2)nn1)N1C(=O)c2ccccc2C1=O (stereo partly drawn)
- Activity (Plasmodium falciparum [3]): Dose dependent effect
- Activity (Plasmodium berghei [4]): 2.1%
- FIC (Plasmodium falciparum [26]): 0.86
- Activity (Plasmodium falciparum [5]): Active
- Activity (Plasmodium berghei [6]): Active
- Activity (Plasmodium falciparum [18]): inactive
- MST (Plasmodium berghei [8]): 11.42 days
- Activity (Erythrocyte): Non-Toxic
- inhibition at 1 µM (Plasmodium falciparum [1]): 45%
- Activity (Plasmodium falciparum [9]): Active
- IC50 (Plasmodium falciparum [10]): 1.62 µM
- Kd [27]: 26.4 µM
- Activity (Plasmodium falciparum [28]): Active
- selectivity ratio [11]: 156
- inhibition at 10 µM (Plasmodium falciparum [2]): 68%
- Activity [12]: Non-Toxic
- IC50 (Plasmodium falciparum [13]): 0.64 µM
- Activity (Plasmodium falciparum [21]): Active
- IC50 [14]: > 100 µM
- FIC (Plasmodium falciparum [29]): 0.67
- Activity (Plasmodium falciparum [15]): 4.61
